Laboratory results from the METLIN SMRT retention time set (Domingo-Almenara et al. 2019).

Assay: gradient 5% acetonitrile 3 min, to 50% in 2 min, to 85% in 15 min, held 3 min, 100 µL/min
Details: column: Zorbax Extend-C18 2.1 x 50 mm; eluents: water / acetonitrile, 0.1% formic acid
How it was run: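 Using water and acetonitrile that each contained 0.1% formic acid, mixtures of ~100 pure standards were separated at 100 μL/min on a Zorbax Extend-C18 column (2.1 × 50 mm, 1.8 μm). The HPLC fed a quadrupole time-of-flight mass spectrometer working in positive and negative ionization mode, with dead and dwell volumes of 40 μL and 900 μL. Data were acquired over 3 months. Retention time was read from computationally picked adduct peaks after manual inspection of each.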

Compared with O=C(NCC1CCN(Cc2ccccc2)CC1)C(=O)Nc1ccc(F)cc1F, COc1ccccc1CN1CCC(CNS(=O)(=O)c2ccc3c(c2)CCCC(=O)N3)CC1 is lower in RP-LC retention time: 573 s for the first, 566 s for the second.

First: Cc1noc([C@@H]2CC(F)(F)CN2C(=O)c2ccco2)n1
Second: CCc1nc(-c2csc(S(=O)(=O)N3CCC(C(=O)NC(C)C)CC3)c2)no1
The RP-LC retention time of the first is lower: 706 s for the first, 812 s for the second.

Going from CCOC(=O)C1CCN(C(=O)C2CCCN(c3nc4ccccc4[nH]3)C2)CC1 (centres undefined) to CC1CCN(C(=O)C2CCCN(C(=O)c3nnc(C(=O)Nc4ccc(F)cc4)s3)C2)CC1 (centres undefined), the RP-LC retention time rises from 646 s to 661 s.

Compared with O=C1N(c2cccc(F)c2)c2ncccc2S(=O)(=O)N1Cc1ccccc1F, COc1ccc(NC(=O)c2c(O)c3cccnc3n(-c3cccc(F)c3)c2=O)cc1 is higher in RP-LC retention time: 1020 s for the first, 1190 s for the second.

Going from Cn1ccc2cc(S(=O)(=O)N3CCCC(C(=O)NCCCN4CCc5ccccc5C4)C3)ccc21 (centres undefined) to CCNC(=O)CN1C(=O)CCCc2cc(S(=O)(=O)N3CCC(C)CC3)ccc21, the RP-LC retention time rises from 685 s to 769 s.

First: Cc1ccccc1OCC(=O)NCc1c(C)noc1C
Second: CCOCCCNC(=O)CCc1c(-c2ccc(F)cc2)nc2ccccn12
The RP-LC retention time of the first is higher: 790 s for the first, 588 s for the second.

First: CCc1nc2cc(-c3noc(-c4cc(F)ccc4F)n3)ccc2o1
Second: Cc1ccc(-c2csc(Cc3nc(-c4ccc(F)cc4)no3)n2)c(C)c1
The RP-LC retention time of the first is higher: 1180 s for the first, 1070 s for the second.

Compared with Cc1cc(C)n2c(Nc3cccc(C(F)(F)F)c3)c(-c3cc(Br)ccc3O)nc2n1, CCN1CCn2c(nc3cc(C(=O)NCc4ccc(C(F)(F)F)cc4)ccc32)C1=O is lower in RP-LC retention time: 1060 s for the first, 741 s for the second.

First: O=C(Cn1ncc2c(N3CCN(c4ccccn4)CC3)ncnc21)Nc1ccc(F)cc1F
Second: O=C(Cn1ccc2ccc(N3CCOCC3)nc21)NCc1ccccc1Br
The RP-LC retention time of the first is lower: 615 s for the first, 886 s for the second.

Going from O=C(NCCN1CCCCC1)C1CCc2sc(C(=O)N3CCOCC3)cc2C1 (centres undefined) to O=C(NC1CCCC1)c1cc(N2CCCC2)n2nccc2n1, the RP-LC retention time rises from 581 s to 908 s.

First: CCCCC(C)C(=O)NC1CCN(C2=NS(=O)(=O)C(c3ccc(C)c(C)c3)=C2C)CC1 (centres undefined)
Second: CCCCc1cc(=O)oc2cc(C)cc(OC(C)C(=O)N3CCC4(O)CCCCC4C3)c12 (centres undefined)
The RP-LC retention time of the first is higher: 987 s for the first, 952 s for the second.

Compared with Cn1c(N)c(S(=O)(=O)N2CCN(c3ccccc3F)CC2)c(=O)n(C)c1=O, CCn1cnc(S(=O)(=O)N2CCC(C(=O)Nc3ccccc3OC)CC2)c1 is lower in RP-LC retention time: 701 s for the first, 666 s for the second.

Compared with CN(C(=O)Cn1cnc2c(-c3ccccc3)csc2c1=O)c1ccccc1, O=C(NCc1ccccc1)c1cc2c(=O)n(Cc3ccccc3)ccc2s1 is lower in RP-LC retention time: 911 s for the first, 896 s for the second.

First: Cc1cnc(C(=O)N2CCC(N3C(=O)C(OCC4CC4)C34CCOCC4)CC2)cn1 (centres undefined)
Second: O=C(Nc1cnn(-c2ncc(N3CCSCC3)cn2)c1)C1CCCO1 (centres undefined)
The RP-LC retention time of the first is lower: 618 s for the first, 665 s for the second.

First: O=C(NCCc1ccc(Cl)cc1)C(=O)c1ccc[nH]1
Second: O=C1C=C(NCCc2ccccc2)c2ccccc2C1=O
The RP-LC retention time of the first is higher: 878 s for the first, 736 s for the second.

Going from CC(=O)Nc1onc(C)c1-c1ccc(C)c(S(=O)(=O)Nc2ccc(C)cc2Cl)c1 to COc1cc(NC(=O)N(C)CCc2noc(COc3ccc(F)cc3)n2)cc(OC)c1, the RP-LC retention time rises from 864 s to 874 s.

Going from COc1ccccc1NC(=O)C(C)n1nc(C)c2nn(-c3ccccc3)c(-n3cccc3)c2c1=O (centres undefined) to O=c1c(NCCc2ccncc2)nc2ccncc2n1Cc1ccccc1, the RP-LC retention time falls from 1130 s to 553 s.

Going from CCCN(C)C(=O)c1ccc2c(c1)Sc1ncccc1C(=O)N2C(C)C to Cn1c(CCNC(=O)c2cccc(C#N)c2)nc2cccnc21, the RP-LC retention time falls from 760 s to 601 s.

First: O=C(Cc1ccsc1)N1CCC(Nc2ncnc3c2CCC3)CC1
Second: COc1ccc(CN2C(=O)COC[C@H]2C(=O)NC2CC2)c(OC)c1
The RP-LC retention time of the first is higher: 673 s for the first, 643 s for the second.

Going from CCN(CC)CCCNC(=O)c1cc(C)nc2ccc(Br)cc12 to Cc1nc2ccn(Cc3ccco3)c(=O)c2cc1C(=O)NCCCN1CCOCC1, the RP-LC retention time falls from 585 s to 578 s.

First: CCOC(=O)c1c(C)[nH]c(C(=O)N2CCC(C(C)C(=O)N3CCCC3)CC2)c1C (centres undefined)
Second: CCCN1CCn2cc(C(=O)NC(C)c3ccccc3)nc2C1 (centres undefined)
The RP-LC retention time of the first is higher: 715 s for the first, 603 s for the second.

Going from CCOc1cccc(Cn2c(=O)c3sccc3n(Cc3nc(-c4ccccc4C)no3)c2=O)c1 to Cc1cc(-n2nnc(C(=O)O)c2-c2ccccn2)ccc1F, the RP-LC retention time falls from 1190 s to 642 s.
